What was measured:
[1] = biological target: T1, Nuclear receptor ROR-gamma (Homo sapiens, UniProt P51449); experiment: Inverse agonist activity at Gal4-fused RORgamma LBD (unknown origin) expressed in 293T cells measured after 24 hrs by dual-luciferase reporter gene assay; format: cell-based
T1 sequence (P51449 whole entry): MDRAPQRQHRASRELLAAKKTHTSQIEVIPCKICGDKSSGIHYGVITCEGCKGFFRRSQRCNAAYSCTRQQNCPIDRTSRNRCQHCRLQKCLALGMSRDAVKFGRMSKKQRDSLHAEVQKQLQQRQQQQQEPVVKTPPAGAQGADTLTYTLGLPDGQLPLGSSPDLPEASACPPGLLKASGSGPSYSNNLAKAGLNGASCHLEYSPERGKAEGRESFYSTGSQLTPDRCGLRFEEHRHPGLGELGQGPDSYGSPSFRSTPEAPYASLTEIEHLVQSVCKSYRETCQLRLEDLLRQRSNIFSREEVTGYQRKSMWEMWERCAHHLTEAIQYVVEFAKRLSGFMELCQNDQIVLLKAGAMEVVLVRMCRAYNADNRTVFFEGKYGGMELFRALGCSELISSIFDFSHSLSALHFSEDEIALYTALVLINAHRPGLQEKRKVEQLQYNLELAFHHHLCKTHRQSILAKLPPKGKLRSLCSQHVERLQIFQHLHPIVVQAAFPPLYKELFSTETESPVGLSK

[2] = biological target: T2, Nuclear receptor ROR-gamma (Homo sapiens) (UniProt P51449)
T2 sequence (whole entry): T1 sequence (P51449 whole entry)

[3] = biological target: T2, Nuclear receptor ROR-gamma (Homo sapiens); experiment: Inverse agonist activity at Gal4-fused RORgamma LBD (unknown origin) expressed in 293T cells measured after 24 hrs by dual-luciferase reporter gene assay relative to control; format: cell-based
[4] = biological target: T3, Nuclear receptor ROR-alpha (Homo sapiens, UniProt P35398)
T3 sequence (P35398 whole entry): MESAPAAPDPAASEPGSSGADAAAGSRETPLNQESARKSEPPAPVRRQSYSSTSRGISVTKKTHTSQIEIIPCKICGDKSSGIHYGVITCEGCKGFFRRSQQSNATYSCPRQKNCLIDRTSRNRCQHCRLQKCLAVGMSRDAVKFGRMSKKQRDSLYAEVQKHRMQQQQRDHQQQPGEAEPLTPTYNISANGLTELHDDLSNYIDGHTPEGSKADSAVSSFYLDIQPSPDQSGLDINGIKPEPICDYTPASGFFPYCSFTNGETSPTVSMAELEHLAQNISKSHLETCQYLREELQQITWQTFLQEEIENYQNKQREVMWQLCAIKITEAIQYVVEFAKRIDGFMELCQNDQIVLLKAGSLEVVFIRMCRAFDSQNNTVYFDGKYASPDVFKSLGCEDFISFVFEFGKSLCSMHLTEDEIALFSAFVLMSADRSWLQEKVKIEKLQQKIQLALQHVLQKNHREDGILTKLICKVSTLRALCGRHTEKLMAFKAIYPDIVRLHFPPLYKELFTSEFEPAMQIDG

[5] = biological target: T4, Nuclear receptor ROR-beta (Homo sapiens, UniProt Q92753)
T4 sequence (Q92753 whole entry): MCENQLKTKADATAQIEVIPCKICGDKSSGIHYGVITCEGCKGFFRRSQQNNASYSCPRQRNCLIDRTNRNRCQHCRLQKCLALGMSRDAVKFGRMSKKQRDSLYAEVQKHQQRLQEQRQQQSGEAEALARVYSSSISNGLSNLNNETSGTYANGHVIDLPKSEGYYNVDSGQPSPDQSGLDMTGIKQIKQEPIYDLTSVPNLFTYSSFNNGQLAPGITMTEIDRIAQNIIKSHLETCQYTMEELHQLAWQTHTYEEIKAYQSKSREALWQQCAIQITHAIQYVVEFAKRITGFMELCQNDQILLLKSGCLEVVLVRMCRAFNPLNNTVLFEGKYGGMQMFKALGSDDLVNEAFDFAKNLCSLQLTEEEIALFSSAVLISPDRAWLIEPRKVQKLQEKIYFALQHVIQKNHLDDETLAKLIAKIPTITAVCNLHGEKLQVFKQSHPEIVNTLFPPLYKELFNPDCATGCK

[6] = biological target: T5, Oxysterols receptor LXR-alpha (Homo sapiens, UniProt Q13133)
T5 sequence (Q13133 whole entry): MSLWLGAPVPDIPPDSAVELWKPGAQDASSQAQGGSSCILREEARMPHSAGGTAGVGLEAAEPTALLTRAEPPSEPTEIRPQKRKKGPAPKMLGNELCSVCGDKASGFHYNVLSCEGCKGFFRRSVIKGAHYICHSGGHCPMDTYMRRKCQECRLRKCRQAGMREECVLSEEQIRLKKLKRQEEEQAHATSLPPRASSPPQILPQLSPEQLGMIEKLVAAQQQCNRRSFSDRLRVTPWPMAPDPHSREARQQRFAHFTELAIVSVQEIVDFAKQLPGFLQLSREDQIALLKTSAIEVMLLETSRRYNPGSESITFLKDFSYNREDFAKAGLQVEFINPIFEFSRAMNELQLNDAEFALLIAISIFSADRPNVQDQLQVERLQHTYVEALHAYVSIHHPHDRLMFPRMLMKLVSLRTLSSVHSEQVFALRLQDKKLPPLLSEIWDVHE

Bile acid receptor [7] = biological target: T6, Bile acid receptor (Homo sapiens, UniProt Q96RI1)
T6 sequence (Q96RI1 whole entry): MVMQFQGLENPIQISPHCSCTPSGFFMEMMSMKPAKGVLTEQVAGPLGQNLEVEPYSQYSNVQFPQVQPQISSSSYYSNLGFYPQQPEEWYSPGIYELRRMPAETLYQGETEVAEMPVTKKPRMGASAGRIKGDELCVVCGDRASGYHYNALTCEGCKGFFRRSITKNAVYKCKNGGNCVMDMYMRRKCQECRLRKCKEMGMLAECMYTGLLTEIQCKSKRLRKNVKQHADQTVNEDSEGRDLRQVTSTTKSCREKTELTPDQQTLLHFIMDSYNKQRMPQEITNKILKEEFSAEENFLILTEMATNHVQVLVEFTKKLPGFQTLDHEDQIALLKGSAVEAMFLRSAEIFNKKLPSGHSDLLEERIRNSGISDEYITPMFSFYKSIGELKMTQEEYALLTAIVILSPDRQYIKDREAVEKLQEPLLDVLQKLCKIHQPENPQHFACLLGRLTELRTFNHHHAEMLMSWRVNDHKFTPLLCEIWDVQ

[8] = rat, in vivo, iv, 2 mg/kg
Description: Apparent volume of distribution in Sprague-Dawley rat at 2 mg/kg, iv

in vivo [9] = settings: Sprague-Dawley, rat, iv, 2 mg/kg
in vivo [10] = settings: Sprague-Dawley, rat, iv, 2 mg/kg; remark: listed apart in the source
in vivo [11] = settings: Sprague-Dawley, rat, iv, 2 mg/kg; remark: listed apart in the source
in vivo [12] = settings: Sprague-Dawley, rat, iv, 2 mg/kg; remark: listed apart in the source
in vivo [13] = settings: Sprague-Dawley, rat, iv, 2 mg/kg; remark: listed apart in the source
Description: Half life in Sprague-Dawley rat at 2 mg/kg, iv

in vivo [14] = settings: Sprague-Dawley, rat, po, 10 mg/kg
in vivo [15] = settings: Sprague-Dawley, rat, po, 10 mg/kg; remark: listed apart in the source
in vivo [16] = settings: Sprague-Dawley, rat, po, 10 mg/kg; remark: listed apart in the source
in vivo [17] = settings: Sprague-Dawley, rat, po, 10 mg/kg; remark: listed apart in the source
in vivo [18] = settings: Sprague-Dawley, rat, po, 10 mg/kg; remark: listed apart in the source
Description: Half life in Sprague-Dawley rat at 10 mg/kg, po

in vitro = settings: rat, liver microsomes
Description: Stability in rat liver microsomes assessed as parent compound remaining at 10 uM measured after 60 mins by LC-MS/MS analysis

[19] = biological target: T1, Nuclear receptor ROR-gamma; experiment: Inverse agonist activity at human N-terminal His6-tagged RORgamma (262 to 507 residues) expressed in Escherichia coli BL21 (DE3) assessed as inhibition of biotinylated co-activator SRC1-4 peptide recruitment by alphascreen assay
in vivo [20] = settings: Sprague-Dawley, rat, po, 10 mg/kg; remark: listed apart in the source
[21] = biological target: T7, Bile acid receptor (Homo sapiens) (UniProt Q96RI1); experiment: Inverse agonist activity at Gal4-fused FXR LBD (unknown origin) expressed in 293T cells measured after 24 hrs by dual-luciferase reporter gene assay relative to control; format: cell-based
T7 sequence (whole entry): T6 sequence (Q96RI1 whole entry)

[22] = biological target: T3, Nuclear receptor ROR-alpha; remark: listed apart in the source
Bile acid receptor [23] = biological target: T6, Bile acid receptor; remark: listed apart in the source

SMILES | IC50 [1] [µM] | ΔTm [2] [°C] | also measured
CS(=O)(=O)c1ccc(CS(=O)(=O)Nc2ccc(-c3ccc(C(O)(C(F)(F)F)C(F)(F)F)cc3F)cc2)cc1 | 7.76 | 1 | –
COC(=O)c1cccc(CS(=O)(=O)Nc2ccc(-c3ccc(C(O)(C(F)(F)F)C(F)(F)F)cc3F)cc2)c1 | 4.24 | 4 | –
CC(=O)CCCC(=O)Nc1ccc(-c2ccc(C(O)(C(F)(F)F)C(F)(F)F)cc2F)cc1 | 1.52 | 5 | –
O=[N+]([O-])c1ccc(CS(=O)(=O)Nc2ccc(-c3ccc(C(O)(C(F)(F)F)C(F)(F)F)cc3F)cc2)cc1 | 2.22 | 1.5 | –
CCCCC(=O)Nc1ccc(-c2ccc(C(O)(C(F)(F)F)C(F)(F)F)cc2F)cc1 | – | 6.3 | –
O=C(O)c1ccc(CS(=O)(=O)Nc2ccc(-c3ccc(C(O)(C(F)(F)F)C(F)(F)F)cc3F)cc2)cc1 | – | 0 | Activity [3]: 23%
CS(=O)(=O)c1ccc(CC(=O)Nc2ccc(-c3ccc(C(O)(C(F)(F)F)C(F)(F)F)cc3F)cc2)cc1 | – | 7.8 | IC50 [4]: Not Active; IC50 [5]: Not Active; IC50 [6]: Not Active; IC50 (Bile acid receptor [7]): Not Active; Vz [8]: 3544 mg/kg; Cmax (in vivo [9]): 980 ng/mL; Tmax (in vivo [10]): 4.8 min; AUC(0-t) (in vivo [11]): 7660 ng·h/mL; AUC(0-inf) (in vivo [12]): 10400 ng·h/mL; half-life (in vivo [13]): 12.7 h; Cmax (in vivo [14]): 1420 ng/mL; AUC(0-t) (in vivo [15]): 21600 ng·h/mL; bioavailability (in vivo [16]): 52%; AUC(0-inf) (in vivo [17]): 24500 ng·h/mL; half-life (in vivo [18]): 8.67 h; remaining at 1 h, 10 µM (in vitro): 78%
Nc1ccc(CC(=O)Nc2ccc(-c3ccc(C(O)(C(F)(F)F)C(F)(F)F)cc3F)cc2)cc1 | – | 1.5 | –
COC(=O)c1ccc(CS(=O)(=O)Nc2ccc(-c3ccc(C(O)(C(F)(F)F)C(F)(F)F)cc3F)cc2)cc1 | 0.09 | 8 | IC50 [19]: 4.83 µM; IC50 [4]: Not Active; IC50 [5]: Not Active; IC50 [6]: Not Active; IC50 (Bile acid receptor [7]): Not Active
CNC(=O)c1ccc(CS(=O)(=O)Nc2ccc(-c3ccc(C(O)(C(F)(F)F)C(F)(F)F)cc3F)cc2)cc1 | 8.05 | 0 | –
O=[N+]([O-])c1ccccc1CS(=O)(=O)Nc1ccc(-c2ccc(C(O)(C(F)(F)F)C(F)(F)F)cc2F)cc1 | 7.66 | 1 | –
CCCCCC(=O)Nc1ccc(-c2ccc(C(O)(C(F)(F)F)C(F)(F)F)cc2F)cc1 | 1.83 | 5.9 | –
O=C(Cc1ccc([N+](=O)[O-])cc1)Nc1ccc(-c2ccc(C(O)(C(F)(F)F)C(F)(F)F)cc2F)cc1 | – | 6 | –
O=C(CCC(F)(F)F)Nc1ccc(-c2ccc(C(O)(C(F)(F)F)C(F)(F)F)cc2F)cc1 | 3.08 | 7.8 | –
O=C(CCc1ccccc1)Nc1ccc(-c2ccc(C(O)(C(F)(F)F)C(F)(F)F)cc2F)cc1 | 1.98 | 5.2 | –
O=C(Cc1ccccc1[N+](=O)[O-])Nc1ccc(-c2ccc(C(O)(C(F)(F)F)C(F)(F)F)cc2F)cc1 | – | 4.2 | IC50 [5]: Not Active; IC50 [6]: Not Active; IC50 (Bile acid receptor [7]): Not Active; Vz [8]: 3425 mg/kg; Cmax (in vivo [9]): 839 ng/mL; AUC(0-t) (in vivo [11]): 3340 ng·h/mL; AUC(0-inf) (in vivo [12]): 6440 ng·h/mL; half-life (in vivo [13]): 7.67 h; Cmax (in vivo [14]): 721 ng/mL; Tmax (in vivo [20]): 8 h; AUC(0-t) (in vivo [15]): 3220 ng·h/mL; bioavailability (in vivo [16]): 19%; remaining at 1 h, 10 µM (in vitro): 79%
COC(=O)CCC(=O)Nc1ccc(-c2ccc(C(O)(C(F)(F)F)C(F)(F)F)cc2F)cc1 | 0.46 | 5.2 | –
COC(=O)c1ccccc1CS(=O)(=O)Nc1ccc(-c2ccc(C(O)(C(F)(F)F)C(F)(F)F)cc2F)cc1 | 2.96 | 2 | –
NC(=O)c1ccc(CS(=O)(=O)Nc2ccc(-c3ccc(C(O)(C(F)(F)F)C(F)(F)F)cc3F)cc2)cc1 | 8.72 | 0 | –
O=[N+]([O-])c1cccc(CS(=O)(=O)Nc2ccc(-c3ccc(C(O)(C(F)(F)F)C(F)(F)F)cc3F)cc2)c1 | 1.49 | 3.5 | –
Nc1ccccc1CC(=O)Nc1ccc(-c2ccc(C(O)(C(F)(F)F)C(F)(F)F)cc2F)cc1 | – | 1.5 | –
O=C(CCCC1CCCCC1)Nc1ccc(-c2ccc(C(O)(C(F)(F)F)C(F)(F)F)cc2F)cc1 | 1.08 | 6.5 | –
CCCCCCC(=O)Nc1ccc(-c2ccc(C(O)(C(F)(F)F)C(F)(F)F)cc2F)cc1 | 0.82 | 5.8 | %max [21]: 93%; IC50 [19]: 5.31 µM; IC50 [22]: 1.74 µM; IC50 (Bile acid receptor [23]): 1.25 µM; IC50 [5]: Not Active; IC50 [6]: Not Active
N#Cc1ccc(CS(=O)(=O)Nc2ccc(-c3ccc(C(O)(C(F)(F)F)C(F)(F)F)cc3F)cc2)cc1 | 7.55 | 0 | –
COC(=O)CCCC(=O)Nc1ccc(-c2ccc(C(O)(C(F)(F)F)C(F)(F)F)cc2F)cc1 | 0.93 | 5.4 | –
